Experimental data taken from patent publication US20020058072A1, “Use of iodide salt as an aphrodisiac” (priority 2000, published 2002).

Tested on: human
Experiment: Oral administration to an adult human: aphrodisiac effect and increased vaginal lubrication
Format: in vivo
Settings: 3 ml of 5M sodium iodide in water added to 20 ml lemon juice plus 1 tbsp sugar; patient
Excerpt: The terms “aphrodisiac” or “heightened sexual desire”, for the purposes of the present invention, refer to the following physical manifestations including clitoral swelling, nipple erection, contraction of the vaginal musculature, and a general tingling sensation.
Specifically, after oral administration of an iodide salt, the subject experienced increased vaginal lubrication. The term “increased vaginal lubrication”, as used herein, refers to an increased amount of transudate present in the vagina above the amount of transudate present in the vagina above the amount of transudate present in the unstimulated state.
The syrup was administered orally to a human, weighing approximately 165 pounds. About 0.5 to 3.0 teaspoons of the hydriodic acid syrup was admixed with approximately 8 ounces of tap water and then ingested.
To 20 ml of lemon juice are added 3 ml of a 5M solution of sodium iodide in water, and 1 tbsp of sugar is added to the resultant solution.

[I-].[Na+] [sodium iodide]
reaction observed after administration (arousal, vaginal lubrication): arousal and increased vaginal lubrication
